Read-outs that look alike come from different tables or passages of the source.
Tests used:
[1] = molecular target: T1, 5-LOX (Glycine max, UniProt P08170); assay: 5-LOX enzyme inhibition and inhibition kinetics (linoleic acid substrate, HPLC); format: biochemical; conditions: Lineweaver-Burk / rate vs enzyme concentration
T1 sequence (P08170 1-839): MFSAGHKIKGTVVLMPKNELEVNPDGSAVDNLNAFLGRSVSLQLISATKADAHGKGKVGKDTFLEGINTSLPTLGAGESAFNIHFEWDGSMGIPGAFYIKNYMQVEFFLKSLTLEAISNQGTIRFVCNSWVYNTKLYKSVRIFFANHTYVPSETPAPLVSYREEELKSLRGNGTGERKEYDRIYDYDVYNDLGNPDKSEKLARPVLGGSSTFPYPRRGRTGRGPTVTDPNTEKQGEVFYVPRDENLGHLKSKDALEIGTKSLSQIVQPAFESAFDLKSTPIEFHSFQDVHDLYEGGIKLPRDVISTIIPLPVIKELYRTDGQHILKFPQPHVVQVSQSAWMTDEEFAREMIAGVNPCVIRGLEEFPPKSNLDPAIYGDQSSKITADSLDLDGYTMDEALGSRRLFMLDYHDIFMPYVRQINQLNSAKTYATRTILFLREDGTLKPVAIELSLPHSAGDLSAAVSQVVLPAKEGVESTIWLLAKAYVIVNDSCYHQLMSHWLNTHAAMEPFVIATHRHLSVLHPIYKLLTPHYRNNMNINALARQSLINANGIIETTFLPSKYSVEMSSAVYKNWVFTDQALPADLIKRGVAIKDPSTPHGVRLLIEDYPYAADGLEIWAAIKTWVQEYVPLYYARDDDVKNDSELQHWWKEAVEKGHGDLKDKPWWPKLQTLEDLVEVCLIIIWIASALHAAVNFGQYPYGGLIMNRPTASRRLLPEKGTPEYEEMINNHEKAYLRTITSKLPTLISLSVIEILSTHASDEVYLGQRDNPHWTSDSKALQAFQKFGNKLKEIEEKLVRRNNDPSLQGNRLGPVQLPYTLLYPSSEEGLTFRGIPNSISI
Excerpt: Galantamine served as the positive control.

[2] = molecular target: T2, AChE (Musca domestica, UniProt A0ABM3VDL1)
Procedure: Acetylcholinesterase (AChE, EC 3.2.1.20) was extracted from fly heads.
All reagents were prepared with 0.05 mol/L phosphate buffer solution at pH 6.8. […] Before use, it was diluted to 0, 5, 10, 15, and 20 × 10^−5 mol/L. 5-LOX and linoleic acid were, respectively prepared at concentrations of 2.08 × 10^−7 and 5.0 × 10^−4 mol/L. AChE and iodinated thioacetylcholine were prepared using the same method.
The mixture was incubated for 10 min at 37 °C in a thermostatic water bath to form the enzyme reaction solution, followed by the addition of linoleic acid (5.0 × 10^−4 mol/L) as the substrate. […] For the AChE assay, 0.1 ml of DTNB solution was included in the reaction mixture and incubated under the same conditions as those used in the 5-LOX experiment, while all other procedural steps remained identical. The control group was not supplemented with samples, while the blank group received an equal volume of buffer solution in place of the enzyme solution. […] Enzyme activity in the absence of any inhibitor was regarded as 100%.
By analyzing the correlation between reaction rate and enzyme concentration, a kinetic curve was generated.
Data analysis was carried out using Origin 8.0 software through one-way ANOVA, with each sample group subjected to three independent replicate experiments (p < 0.05).

[3] = molecular target: T2, AChE; assay: Affinity ultrafiltration-HPLC binding degree to AChE; set-up: species or system fly; conditions: GJR extract, 37 °C 30 min
Procedure: (§1) A total of 300 g of GJR was accurately weighed, dried, and ground into a fine powder using a mechanical grinder. The powdered material was extracted with 60% ethanol (v/v) at a solvent-to-solid ratio of 20:1 (v/v). Each extraction cycle involved ultrasonication for 1 h and was performed twice to ensure exhaustive extraction. The combined extracts were concentrated to dryness by rotary evaporation under reduced pressure, yielding 6.75 g of crude extract. A 50 mg portion of the crude extract was accurately weighed, dissolved in 50% methanol–water (v/v), and diluted to a final concentration of 50 mg/ml to obtain a stock solution for subsequent experiments. All procedures were conducted under controlled laboratory conditions to ensure consistency and reproducibility.
(§2) The screening assay consisted of two groups: a blank control and an experimental group, both prepared in phosphate-buffered saline (PBS). In the experimental group, 10.0 μl of the sample solution was mixed with 90.0 μl of either 5-lipoxygenase (5-LOX) and acetylcholinesterase (AChE) at final concentrations of 0.5, 1.0, or 2.0 U/ml, along with 100 μl of PBS (pH 7.4), resulting in a total volume of 200 μl. The mixture was incubated at 37 °C for 30 min and subsequently filtered through a 100 kDa ultrafiltration membrane by centrifugation at high speed for 10 min. The supernatant was discarded, and the membrane was washed three times with PBS to remove free or non-specifically bound compounds. Then, 150 μl of 50% methanol–water was added to denature the proteins and release the bound small molecules. For the blank control, the enzyme solution was replaced with an equal volume of PBS, while all other experimental conditions remained the same. The resulting eluate was analyzed by HPLC. The binding degree (BD) was used to quantify the interaction between compounds and the target enzymes. It was calculated based on the increase in chromatographic peak area of enzyme-bound compounds, using the following formula: […]

[4] = molecular target: T1, 5-LOX; assay: Affinity ultrafiltration-HPLC binding degree to 5-LOX; conditions: GJR extract, 37 °C 30 min
Procedure: as §1, §2

T2 sequence (A0ABM3VDL1 81-660): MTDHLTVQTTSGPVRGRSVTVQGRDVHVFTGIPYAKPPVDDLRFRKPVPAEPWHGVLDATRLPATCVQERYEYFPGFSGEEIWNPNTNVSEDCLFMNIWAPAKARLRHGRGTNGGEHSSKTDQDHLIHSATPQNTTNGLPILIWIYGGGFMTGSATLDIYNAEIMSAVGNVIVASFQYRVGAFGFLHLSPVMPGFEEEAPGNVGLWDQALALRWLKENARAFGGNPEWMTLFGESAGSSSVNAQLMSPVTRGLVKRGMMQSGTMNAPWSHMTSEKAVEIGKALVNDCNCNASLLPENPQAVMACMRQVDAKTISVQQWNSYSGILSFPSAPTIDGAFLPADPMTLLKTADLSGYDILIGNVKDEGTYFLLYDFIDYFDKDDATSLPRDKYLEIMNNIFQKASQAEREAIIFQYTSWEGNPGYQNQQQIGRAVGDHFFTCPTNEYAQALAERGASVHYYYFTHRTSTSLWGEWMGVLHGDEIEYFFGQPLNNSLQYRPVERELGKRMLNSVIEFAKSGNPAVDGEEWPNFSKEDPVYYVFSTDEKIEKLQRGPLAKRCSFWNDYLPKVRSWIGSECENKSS

SMILES | Inhibition type for 5-LOX [1] | Inhibition type for 5-LOX ([1]; listed as mussaenoside acid) | Kis, AChE ([2]; Lineweaver-Burk) | Inhibition type for AChE ([2]; concentration exceeds 10 × 10^−5 mol/L) | Inhibition type for AChE ([2]; concentrations below 5 × 10^−5 mol/L) | Inhibition type for AChE ([2]; overall statement in conclusion) | BD (binding degree) with AChE ([3]; AChE 0.5 U/ml) | BD (binding degree) with AChE ([3]; AChE 1.0 U/ml) | BD (binding degree) with AChE ([3]; AChE 2.0 U/ml) | BD (binding degree) with 5-LOX ([4]; 5-LOX 0.5 U/ml) | BD (binding degree) with 5-LOX ([4]; 5-LOX 1.0 U/ml) | BD (binding degree) with 5-LOX ([4]; 5-LOX 2.0 U/ml)
C[C@]1(O)CC[C@@H]2C(C(=O)O)=CO[C@@H](O[C@@H]3O[C@H](CO)[C@@H](O)[C@H](O)[C@H]3O)[C@@H]21 [Mussaenoside acid] | competitive inhibition | reversible inhibition | 102.08 | mixed-type inhibition | competitive inhibition | mixed-type inhibition |  |  |  |  |  | 
COc1cc(C2OCC3C(c4cc(OC)c(OC5OC(CO)C(O)C(O)C5O)c(OC)c4)OCC23)cc(OC)c1OC1OC(CO)C(O)C(O)C1O (stereo not drawn) [Eleutheroside E] |  |  |  |  |  |  | 12.19% | 21.06% | 69.87% | 38.17% | 55.16% | 59.44%
